# US6683183B2, “Pyridotriazines and pyridopyridazines” (Warner-Lambert Company, priority 2000, dated 2004)
# Legend:
# [1] = molecular target: T1, c-Src (Homo sapiens, UniProt P12931); test: c-Src kinase inhibition (DELFIA); type: biochemical; conditions: c-Src at 3 units per reaction
# T1 construct: purchased Upstate Biotechnology, Lake Placid, N.Y
# Protocol: c-Src kinase is purified from baculovirus infected insect cell lysates using an antipeptide monoclonal antibody directed against the N-terminal amino acids (amino acids 2-17) of c-Src. The antibody, covalently linked to 0.65 μm latex beads, is added to a suspension of insect cell lysis buffer comprised of 150 mM NaCl, 50 mM Tris pH 7.5, 1 mM DTT, 1% NP-40, 2 mM EGTA, 1 mM sodium vanadate, 1 mM PMSF, 1 μg/mL each of leupeptin, pepstatin, and aprotinin. Insect cell lysate containing c-Src protein is incubated with these beads for 3 to 4 hours at 4° C. with rotation. […] The filters are then punched, counted in a liquid scintillation counter, and the data examined for inhibitory activity in comparison to a known inhibitor such as erbstatin. […]
# (§1) The inhibition activity of the compounds in Examples 7 and 8 were also evaluated using the Dissociated Enhanced Lanthanide Fluoroimmuno Assay (DELFIA) (Frank Loganzo and Carolyn Harady. A sensitive, time-resolved fluorometric assay for the detection of inhibitors of phosphotyrosine kinases. American Biotechnology Laboratory, December 1998). […] One hundred microliter DELFIA Enhancement Solution (EG&G Wallac) was added and time-resolved fluorescence of the reactions determined using a VICTOR2 1420 multilable counter (EG&G Wallac). […]
# [2] = molecular target: T2, PDGF (Mus musculus, UniProt P05622); test: PDGF receptor tyrosine kinase inhibition (DELFIA); type: biochemical; conditions: kinase domain at 20 nM
# T2 construct: The kinase domains from FGFR-1, VEGFR-2, Lck, and PDGF were purified from baculoviral vectors expression systems; made in house; host or cells: baculovirus expression system (insect cells)
# From the text: (§2) Full-length cDNAs for the mouse PDGF-β and human FGF-1 (flg) receptor tyrosine kinases were obtained from J. Escobedo and prepared as described in J. Biol. Chem., 1991;262:1482-1487. PCR primers were designed to amplify a fragment of DNA that codes for the intracellular tyrosine kinase domain. The fragment was inserted into a baculovirus vector, cotransfected with AcMNPV DNA, and the recombinant virus isolated. SF9 insect cells were infected with the virus to overexpress the protein, and the cell lysate was used for the assay. […] Filters were washed three times with 15% TCA containing 100 mM sodium pyrophosphate, and the radioactivity retained on the filters counted in a Wallac 1250 Betaplate reader. Nonspecific activity was defined as radioactivity retained on the filters following incubation of samples with buffer alone (no enzyme). […]
# as §1
# [3] = molecular target: T3, FGFR-1 (Homo sapiens, UniProt P11362); test: FGFR tyrosine kinase inhibition (DELFIA); type: biochemical; conditions: kinase domain at 20 nM
# T3 construct: The kinase domains from FGFR-1, VEGFR-2, Lck, and PDGF were purified from baculoviral vectors expression systems; made in house; host or cells: baculovirus expression system (insect cells)
# From the text: as §2, §1
# [4] = molecular target: T4, VEGFR-2 (Homo sapiens, UniProt P35968); test: VEGFR-2 tyrosine kinase inhibition (DELFIA); type: biochemical; conditions: kinase domain at 20 nM; read-out: (VEGF-2) (IC50 = μM)
# T4 construct: The kinase domains from FGFR-1, VEGFR-2, Lck, and PDGF were purified from baculoviral vectors expression systems; made in house; host or cells: baculovirus expression system (insect cells)
# Protocol: (§3) The inhibition activity of the compounds in Examples 7 and 8 were also evaluated using the Dissociated Enhanced Lanthanide Fluoroimmuno Assay (DELFIA) (Frank Loganzo and Carolyn Harady. A sensitive, time-resolved fluorometric assay for the detection of inhibitors of phosphotyrosine kinases. American Biotechnology Laboratory, December 1998). DELFIA plates (EG&G Wallac, Gaithersburg, Md.) were coated overnight with Poly Glu Tyr (4:1) (Sigma, St. Louis, Mo.) overnight at room temperature, washed (DELFIA wash reagent, EG&G Wallac), and spotted with 1 μL inhibitor dilution or DMSO carrier control per well. In some cases, kinase was autophosphorylated prior to analysis by incubating 45 minutes at 4° C. in the presence of 4 mM ATP and 25 mM MgCl2. A typical 100 μL kinase assay reaction contained 20 mM Tris (pH 7.5), 20 mM MgCl2, 50 mM NaCl, 5 mM DTT, 200 μM ATP, and protease inhibitors (Mini EDTA-free protease inhibitor cocktail tablets, Boehringer Mannheim, Indianapolis, Ind.), 40 μM ATP, and an appropriate concentration of inhibitor. The reaction was allowed to continue for 30 minutes at room temperature. […] One hundred microliter DELFIA Enhancement Solution (EG&G Wallac) was added and time-resolved fluorescence of the reactions determined using a VICTOR2 1420 multilable counter (EG&G Wallac). […]
# [5] = molecular target: T5, Lck (Homo sapiens, UniProt P06239); test: Lck kinase inhibition (DELFIA); type: biochemical; conditions: kinase domain at 20 nM
# T5 construct: The kinase domains from FGFR-1, VEGFR-2, Lck, and PDGF were purified from baculoviral vectors expression systems; made in house; host or cells: baculovirus expression system (insect cells)
# Protocol: as §3
# T1 sequence (P12931 whole entry, species assumed): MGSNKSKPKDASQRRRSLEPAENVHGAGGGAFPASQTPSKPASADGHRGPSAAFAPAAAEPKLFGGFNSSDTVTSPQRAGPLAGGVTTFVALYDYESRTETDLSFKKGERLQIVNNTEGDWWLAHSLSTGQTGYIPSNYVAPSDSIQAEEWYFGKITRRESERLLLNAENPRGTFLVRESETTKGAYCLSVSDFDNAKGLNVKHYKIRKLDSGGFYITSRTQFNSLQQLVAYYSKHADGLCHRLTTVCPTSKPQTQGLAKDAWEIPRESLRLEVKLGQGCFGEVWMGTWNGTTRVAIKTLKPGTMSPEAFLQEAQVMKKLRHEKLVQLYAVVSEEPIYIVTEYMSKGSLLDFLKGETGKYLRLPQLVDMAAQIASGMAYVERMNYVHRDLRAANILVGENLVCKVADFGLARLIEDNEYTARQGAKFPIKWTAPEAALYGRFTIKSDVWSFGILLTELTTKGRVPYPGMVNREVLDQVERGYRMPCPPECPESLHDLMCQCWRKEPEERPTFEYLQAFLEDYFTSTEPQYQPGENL
# T3 sequence (P11362 478-767 limits assumed): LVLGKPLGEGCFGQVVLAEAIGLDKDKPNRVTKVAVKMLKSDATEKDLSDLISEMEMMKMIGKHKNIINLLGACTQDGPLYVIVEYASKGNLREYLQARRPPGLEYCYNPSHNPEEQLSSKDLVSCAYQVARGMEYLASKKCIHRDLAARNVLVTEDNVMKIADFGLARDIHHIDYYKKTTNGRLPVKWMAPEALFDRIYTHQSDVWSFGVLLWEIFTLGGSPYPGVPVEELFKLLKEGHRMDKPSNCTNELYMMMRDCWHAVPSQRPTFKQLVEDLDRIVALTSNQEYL
# T2 sequence (P05622 599-961 limits assumed): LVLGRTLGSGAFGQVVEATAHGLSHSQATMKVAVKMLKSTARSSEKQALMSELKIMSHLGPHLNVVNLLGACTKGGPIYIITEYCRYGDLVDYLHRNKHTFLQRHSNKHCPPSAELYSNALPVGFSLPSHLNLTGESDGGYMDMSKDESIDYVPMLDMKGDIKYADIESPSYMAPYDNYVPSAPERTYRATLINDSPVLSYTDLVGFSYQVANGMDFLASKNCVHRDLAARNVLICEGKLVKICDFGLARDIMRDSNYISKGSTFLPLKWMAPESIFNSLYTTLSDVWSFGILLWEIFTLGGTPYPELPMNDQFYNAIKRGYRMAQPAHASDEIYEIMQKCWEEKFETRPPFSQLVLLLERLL
# T5 sequence (P06239 245-498 limits assumed, species assumed): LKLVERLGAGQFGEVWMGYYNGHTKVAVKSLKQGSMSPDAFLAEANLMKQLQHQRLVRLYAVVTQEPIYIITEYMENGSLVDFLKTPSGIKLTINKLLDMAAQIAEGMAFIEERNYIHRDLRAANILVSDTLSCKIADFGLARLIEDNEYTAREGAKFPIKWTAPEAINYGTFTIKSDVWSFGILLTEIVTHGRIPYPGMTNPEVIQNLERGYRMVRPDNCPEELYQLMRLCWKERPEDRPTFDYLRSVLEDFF
# T4 sequence (P35968 834-1162 limits assumed, species assumed): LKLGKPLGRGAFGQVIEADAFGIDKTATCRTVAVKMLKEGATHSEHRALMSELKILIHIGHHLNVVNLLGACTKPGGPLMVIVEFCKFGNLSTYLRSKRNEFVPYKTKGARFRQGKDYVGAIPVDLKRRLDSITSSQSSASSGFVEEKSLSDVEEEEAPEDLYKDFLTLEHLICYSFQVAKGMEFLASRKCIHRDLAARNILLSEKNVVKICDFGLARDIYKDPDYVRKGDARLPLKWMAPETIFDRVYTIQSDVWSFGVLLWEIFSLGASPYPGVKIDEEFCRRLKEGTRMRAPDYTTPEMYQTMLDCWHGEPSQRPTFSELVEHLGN
SMILES,IC50 [1],IC50 [2],IC50 [3],melting point,IC50 [4],Ki [5]
"CCN(CC)CCCCNc1nnc2cc(-c3cc(OC)cc(OC)c3)c(=O)n(CC)c2n1 [Example 7, 3-(4-Diethylamino-butylamino)-7-(3,5-dimethoxy-phenyl)-5-ethyl-5H-pyrido[2,3-e]-1,2,4-triazin-6-one]",10.6 µM,> 50 µM,6.04 µM,120 to 121 °C (dec.),–,–
"CCn1c(=O)c(-c2cc(OC)cc(OC)c2)cc2nnc(Nc3ccncc3)nc21 [Example 8, 7-(3,5-Dimethoxy-phenyl)-5-ethyl-3-(pyridin-4-ylamino)-5H-pyrido[2,3-e]-1,2,4-triazin-6-one]",> 4 µM,> 50 µM,1.22 µM,–,0.35 µM,> 4 µM
